Data on 3 molecules can be found in paper doi:10.1101/2025.01.31.635529v3 (biorxiv, 2025).

Each structure is given as a SMILES string.

The target in this assay is T1, PaAtg18 (Atg18) (Ogataea angusta, UniProt Q5QA94).
T1 sequence (Q5QA94 1-525): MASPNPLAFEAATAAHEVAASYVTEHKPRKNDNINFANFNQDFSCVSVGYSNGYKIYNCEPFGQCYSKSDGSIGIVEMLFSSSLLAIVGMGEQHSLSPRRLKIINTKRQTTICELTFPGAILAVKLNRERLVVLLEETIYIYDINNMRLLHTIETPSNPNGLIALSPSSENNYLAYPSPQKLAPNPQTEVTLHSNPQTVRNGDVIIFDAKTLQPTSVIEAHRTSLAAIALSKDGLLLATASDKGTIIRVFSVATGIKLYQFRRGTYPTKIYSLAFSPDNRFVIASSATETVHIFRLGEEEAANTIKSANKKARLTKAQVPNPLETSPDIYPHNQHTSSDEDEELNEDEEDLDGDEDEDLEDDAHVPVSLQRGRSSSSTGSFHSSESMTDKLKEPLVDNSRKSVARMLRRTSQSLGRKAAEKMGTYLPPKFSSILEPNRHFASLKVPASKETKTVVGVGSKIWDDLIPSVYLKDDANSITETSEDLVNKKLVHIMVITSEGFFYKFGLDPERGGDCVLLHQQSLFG
In words: isothermal titration calorimetry. The class given is binding.
`O=P(O)(O)O[C@H]1[C@H](O)[C@@H](OP(=O)(O)O)[C@H](O)[C@@H](OP(=O)(O)O)[C@H]1O` [Ins(1,3,5)P3] had a dissociation constant (Kd) of 37.4 ± 1.3 µM.

Take `O=P(O)(O)O[C@@H]1[C@H](O)[C@H](O)[C@@H](OP(=O)(O)O)[C@H](OP(=O)(O)O)[C@H]1O` [Ins(1,4,5)P3]: binding was characterised by a dissociation constant (Kd) of 116 ± 14 µM.

For `O=P(O)(O)O[C@H]1[C@H](O)[C@@H](O)[C@H](OP(=O)(O)O)[C@@H](OP(=O)(O)O)[C@H]1O` [Ins(1,3,4)P3], the dissociation constant (Kd) worked out at 85.6 ± 23.5 µM.
